“Also recorded” adds a separate entry of the source. Where two headings read alike, the source gives them in different places. Values belong to the molecule of their own block, whether it stands above or below them.
Columns and labels:
nNOS [1] = experiment: Nitrite production (Griess) of wild type and mutant nNOS enzymes; format: biochemical, rat; details: activity of the enzyme preparation, based on heme content
Method: Expression and purification of wild type and mutant bovine eNOS and rat nNOS. Expression and purification of bovine eNOS and rat nNOS were performed using procedures similar to those previously described (Martasek, P.,et al., (1996) Biochem Biophys Res Commun. 219(2); 359-65). Transformed cells were broken with a French press, and after centrifugation to remove cell debris the supernatant was loaded on a 2′5′ADP affinity column, washed, and eluted with 2′AMP as described (id). High purity preparations can be obtained with a size exclusion step; we used a Superose 6 HR 10/30 column (Pharmacia Biotech AB, Uppsala, Sweden), flow rate 0.4 mL/min, buffer composition −50 mM Tris-HCl, pH 7.5, 0.1 mM EDTA, 1 mM-mercaptoethanol, 100 mM NaCl, 10% glycerol (vol/vol). During the purification procedure BH4 or L-arginine were added after elution from the affinity column. Enzyme sample concentrations were determined on the basis of heme concentration, except in heme free preparations, where the flavin concentration was measured. UV-visible absorbance spectra were recorded on an Aminco DW-2000 spectrophotometer.
(§1) Nitric Oxide production was assayed using the Griess assay as adapted for microtiter plates (Gross, S. S. (1996) Methods Enzymol. 268:159-68); calcium dependence was measured using EDTA as a Ca+2 buffer system. […] NADPH-dependent cytochrome c reduction was measured spectrophotometrically as described by McMillan et al (McMillan, K., et al., (1992) Proc Nat. Acad. Sci. U.S.A. 89, 11141-11145), adapted to 96-well plate microtiter plates. In each well, the […] reaction mixture contained 50 mM Na+ TRIS buffer, pH 7.5, 50 uM EDTA, 50 uM NADPH, 50 uM horse heart cytochrome c, and ˜10 nM of nNOS. Cytochrome c reduction was monitored at 550 nm (ε=2.1×104/M). In Cam/Ca+2 dependence studies, 0.75 uM CaCl2 and […] calmodulin were added to reaction mixtures. Assays were performed on a SpectraMAX plate reader (Molecular Devices).

cNOS = experiment: Activation of constitutive NOS by nucleotide ligands; format: biochemical
Method: The effect of 2′AMP on the optical spectra of reductase cofactors in eNOS was also examined for eNOS as isolated and reduced with 1 mM NADPH. eNOS only, eNOS NADPH, eNOS NADPH with 2′AMP, eNOS NADPH with 2′AMP and CAM, and NADPH 2′AMP were compared.
as §1

iNOS = biological target: T1, iNOS (Mus musculus, UniProt P29477); experiment: Effect of NADPH analogs on iNOS electron transfer; format: biochemical, murine; details: Tris buffer, absence of calmodulin
T1 construct: made in house; host or cells: E. coli
T1 sequence (P29477 1-1144): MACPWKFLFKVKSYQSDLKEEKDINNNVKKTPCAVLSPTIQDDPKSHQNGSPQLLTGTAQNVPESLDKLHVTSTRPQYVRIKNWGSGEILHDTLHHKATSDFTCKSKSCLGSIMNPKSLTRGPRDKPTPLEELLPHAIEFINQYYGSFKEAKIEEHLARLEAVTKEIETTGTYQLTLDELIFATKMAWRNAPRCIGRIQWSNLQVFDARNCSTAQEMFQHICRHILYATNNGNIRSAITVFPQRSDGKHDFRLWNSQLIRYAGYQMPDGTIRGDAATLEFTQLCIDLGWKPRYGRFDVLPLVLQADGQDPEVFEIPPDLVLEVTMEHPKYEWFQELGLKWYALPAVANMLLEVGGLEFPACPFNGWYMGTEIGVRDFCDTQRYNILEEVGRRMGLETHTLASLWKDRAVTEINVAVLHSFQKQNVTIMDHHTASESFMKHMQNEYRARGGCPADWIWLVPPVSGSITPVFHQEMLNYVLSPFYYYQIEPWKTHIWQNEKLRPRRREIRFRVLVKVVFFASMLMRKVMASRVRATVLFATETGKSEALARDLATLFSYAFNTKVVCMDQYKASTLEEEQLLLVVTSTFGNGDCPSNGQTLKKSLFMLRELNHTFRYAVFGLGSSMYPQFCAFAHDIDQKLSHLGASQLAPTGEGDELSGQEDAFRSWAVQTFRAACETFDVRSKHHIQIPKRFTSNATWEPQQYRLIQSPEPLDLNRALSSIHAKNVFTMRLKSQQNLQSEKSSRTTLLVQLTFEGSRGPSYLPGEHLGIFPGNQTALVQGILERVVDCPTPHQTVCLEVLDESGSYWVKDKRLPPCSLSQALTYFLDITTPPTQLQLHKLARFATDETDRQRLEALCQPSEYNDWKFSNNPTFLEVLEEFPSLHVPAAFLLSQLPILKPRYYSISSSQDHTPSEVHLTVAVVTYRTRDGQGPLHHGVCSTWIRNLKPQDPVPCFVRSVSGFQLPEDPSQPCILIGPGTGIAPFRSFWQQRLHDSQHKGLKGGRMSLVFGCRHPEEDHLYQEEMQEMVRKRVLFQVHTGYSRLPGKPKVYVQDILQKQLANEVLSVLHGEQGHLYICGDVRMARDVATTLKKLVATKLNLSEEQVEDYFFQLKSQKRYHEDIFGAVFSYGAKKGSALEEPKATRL

nNOS [2] = biological target: T2, nNOS (Rattus norvegicus, UniProt P29476); experiment: NADPH-dependent cytochrome c reduction (electron transfer), nNOS; format: biochemical
T2 construct: further column purification with gel filtration or anion exchange produces very pure full length NOS; made in house; host or cells: E. coli BL21 (pCWori+)

eNOS [3] = biological target: T3, eNOS (Bos taurus, UniProt P29473); experiment: NADPH-dependent cytochrome c reduction (electron transfer), eNOS; format: biochemical, bovine
T3 construct: further column purification with gel filtration or anion exchange produces very pure full length NOS; made in house; host or cells: E. coli BL21 (pCWori+)
T3 sequence (P29473 1-1205): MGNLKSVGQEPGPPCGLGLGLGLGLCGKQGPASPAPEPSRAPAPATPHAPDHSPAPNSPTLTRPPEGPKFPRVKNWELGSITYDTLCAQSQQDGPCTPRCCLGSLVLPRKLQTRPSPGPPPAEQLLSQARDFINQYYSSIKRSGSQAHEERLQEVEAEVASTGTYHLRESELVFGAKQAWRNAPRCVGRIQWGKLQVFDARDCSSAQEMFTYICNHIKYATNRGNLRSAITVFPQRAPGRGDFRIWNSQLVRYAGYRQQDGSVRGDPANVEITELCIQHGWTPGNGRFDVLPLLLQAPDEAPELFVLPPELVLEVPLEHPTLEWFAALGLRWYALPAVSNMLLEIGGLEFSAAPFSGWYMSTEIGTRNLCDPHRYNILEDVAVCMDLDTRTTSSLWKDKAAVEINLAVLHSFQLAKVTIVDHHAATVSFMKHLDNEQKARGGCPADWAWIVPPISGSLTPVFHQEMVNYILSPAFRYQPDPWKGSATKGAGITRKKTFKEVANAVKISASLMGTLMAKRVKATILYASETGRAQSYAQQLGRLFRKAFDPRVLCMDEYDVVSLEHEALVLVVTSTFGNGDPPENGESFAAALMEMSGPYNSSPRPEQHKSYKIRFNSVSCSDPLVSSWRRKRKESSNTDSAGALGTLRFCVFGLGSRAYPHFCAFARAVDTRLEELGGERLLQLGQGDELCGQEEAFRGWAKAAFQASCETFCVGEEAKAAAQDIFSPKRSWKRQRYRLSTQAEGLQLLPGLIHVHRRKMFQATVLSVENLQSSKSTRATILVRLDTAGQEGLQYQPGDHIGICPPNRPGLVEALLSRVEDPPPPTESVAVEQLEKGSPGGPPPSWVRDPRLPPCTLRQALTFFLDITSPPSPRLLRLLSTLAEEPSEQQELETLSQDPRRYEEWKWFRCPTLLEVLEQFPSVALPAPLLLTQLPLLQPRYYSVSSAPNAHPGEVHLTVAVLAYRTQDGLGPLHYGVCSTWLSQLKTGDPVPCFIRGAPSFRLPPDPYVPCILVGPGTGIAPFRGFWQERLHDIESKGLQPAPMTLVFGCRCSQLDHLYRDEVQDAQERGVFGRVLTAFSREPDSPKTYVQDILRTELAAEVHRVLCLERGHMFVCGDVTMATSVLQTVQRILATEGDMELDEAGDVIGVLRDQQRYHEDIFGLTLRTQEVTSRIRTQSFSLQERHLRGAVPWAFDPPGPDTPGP

eNOS [4] = biological target: T4, eNOS (Bos taurus, UniProt P29473); experiment: Griess assay of NO production by eNOS; format: biochemical, bovine; details: for eNOS activity relative to eNOS activated by CaM alone: initial concentrations of NADPH and 2′AMP equal, presence of calcium/CaM
T4 construct: further column purification with gel filtration or anion exchange produces very pure full length NOS; made in house; host or cells: E. coli BL21 (pCWori+)
Method: as §1
Titration of eNOS with 2′AMP in the presence of ‘fully’ activating levels of Ca+2/CaM was performed using a Greiss assay (see, e.g., the Griess Reagent System, Promega Corporation, Madison, Wis.; and manufacturer's instructions for use). Calcium stoichometries were between two and four. The titration produced an additional activation corresponding to an apparent Kd of ˜1 mM. […] In the most widely used assay systems eNOS is 2-3 fold hyperactivated by 2′AMP (Greiss assay). Enhanced levels of cytochrome c reduction (2-5 fold) can also be observed in both eNOS and nNOS.

[5] = comparison of nucleotide ligands

T2 sequence (P29476 whole entry): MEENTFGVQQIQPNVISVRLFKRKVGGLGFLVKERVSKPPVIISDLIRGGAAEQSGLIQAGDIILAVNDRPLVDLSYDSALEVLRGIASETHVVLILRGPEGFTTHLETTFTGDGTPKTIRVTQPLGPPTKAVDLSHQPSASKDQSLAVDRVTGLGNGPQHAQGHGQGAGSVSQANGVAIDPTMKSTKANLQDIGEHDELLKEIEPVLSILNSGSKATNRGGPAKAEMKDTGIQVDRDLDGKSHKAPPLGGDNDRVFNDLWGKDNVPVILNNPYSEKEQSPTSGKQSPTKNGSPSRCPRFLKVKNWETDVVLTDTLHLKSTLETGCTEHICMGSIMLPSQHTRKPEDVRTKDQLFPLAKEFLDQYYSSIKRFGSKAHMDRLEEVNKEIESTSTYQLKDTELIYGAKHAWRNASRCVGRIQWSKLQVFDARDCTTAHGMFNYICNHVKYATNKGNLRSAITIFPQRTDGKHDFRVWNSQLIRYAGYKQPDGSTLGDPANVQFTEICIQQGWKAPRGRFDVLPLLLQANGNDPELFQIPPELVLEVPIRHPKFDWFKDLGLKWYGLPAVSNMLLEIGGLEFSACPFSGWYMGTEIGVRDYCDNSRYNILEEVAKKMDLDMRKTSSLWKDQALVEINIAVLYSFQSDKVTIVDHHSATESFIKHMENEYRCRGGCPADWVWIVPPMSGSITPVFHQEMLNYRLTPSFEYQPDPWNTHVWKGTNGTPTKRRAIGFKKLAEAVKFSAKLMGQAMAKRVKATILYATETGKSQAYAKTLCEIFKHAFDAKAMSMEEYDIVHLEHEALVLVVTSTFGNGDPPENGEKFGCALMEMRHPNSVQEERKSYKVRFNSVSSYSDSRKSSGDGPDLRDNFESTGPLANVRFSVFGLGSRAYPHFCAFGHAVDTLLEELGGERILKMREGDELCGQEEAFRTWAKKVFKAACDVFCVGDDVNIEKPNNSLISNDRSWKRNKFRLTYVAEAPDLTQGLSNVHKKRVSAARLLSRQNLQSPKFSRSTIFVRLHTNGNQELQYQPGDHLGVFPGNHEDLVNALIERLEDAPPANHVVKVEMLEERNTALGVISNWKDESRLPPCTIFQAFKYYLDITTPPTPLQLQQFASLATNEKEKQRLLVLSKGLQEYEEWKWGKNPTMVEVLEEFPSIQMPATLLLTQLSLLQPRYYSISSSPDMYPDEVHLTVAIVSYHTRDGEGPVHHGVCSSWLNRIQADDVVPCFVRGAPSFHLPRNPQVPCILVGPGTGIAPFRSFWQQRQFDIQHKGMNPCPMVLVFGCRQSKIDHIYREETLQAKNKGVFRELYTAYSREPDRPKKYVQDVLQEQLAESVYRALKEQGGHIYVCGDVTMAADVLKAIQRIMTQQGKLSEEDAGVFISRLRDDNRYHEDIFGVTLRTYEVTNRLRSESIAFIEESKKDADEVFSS

Nitrite production (nNOS [1]): 179.8 nmoles/min/mg NOS
Molecule: G1074D mutant: rat nNOS small insertion mutant, Gly 1074 replaced by Asp

Molecule: Nc1ncnc2c1ncn2[C@@H]1O[C@H](COP(=O)(O)O)[C@@H](OP(=O)(O)O)[C@H]1O [3′5′ ADP]
function as NOS activator (cNOS; [5]): only a very weak activator

Molecule: Nc1nc2c(ncn2[C@@H]2O[C@H](COP(=O)(O)OP(=O)(O)O)[C@@H](O)[C@H]2O)c(=O)[nH]1 [GDP]
function as NOS activator (cNOS; [5]): did not function as activators

Molecule: wild-type nNOS: wild type rat neuronal nitric oxide synthase expressed in E. coli
Nitrite production (nNOS [1]): 292.2 nmoles/min/mg NOS

Molecule: Nc1ncnc2c1ncn2[C@@H]1O[C@@H]2COP(=O)(O)O[C@H]2[C@H]1O [Cyclic AMP]
function as NOS activator (cNOS): did not function as activators

Molecule: Nc1nc2c(ncn2[C@@H]2O[C@@H]3COP(=O)(O)O[C@H]3[C@H]2O)c(=O)[nH]1 [cyclic GMP]
function as NOS activator (cNOS; [5]): did not function as activators

Molecule: Nc1nc2c(ncn2[C@@H]2O[C@H](COP(=O)(O)OP(=O)(O)OP(=O)(O)O)[C@@H](O)[C@H]2O)c(=O)[nH]1 [GTP]
function as NOS activator (cNOS; [5]): did not function as activators

Nitrite production (nNOS [1]): 186.2 nmoles/min/mg NOS
Molecule: G1074Y mutant: rat nNOS small insertion mutant, Gly 1074 replaced by Tyr

activation of electron transfer by ATP (nNOS [2]; wild type nNOS, Tris buffer, absence of calmodulin): activation of electron transfer
activation of electron transfer by ATP (eNOS [3]; wild type eNOS, Tris buffer, absence of calmodulin): activation of electron transfer
Molecule: Nc1ncnc2c1ncn2[C@@H]1O[C@H](COP(=O)(O)OP(=O)(O)OP(=O)(O)O)[C@@H](O)[C@H]1O [ATP]
inhibition of iNOS (iNOS): INOS is inhibited; also recorded: inhibition of INOS

enhanced level (activation) of cytochrome c reduction (nNOS [2]; nNOS): 2-5 fold
enhanced level (activation) of cytochrome c reduction (eNOS [3]; eNOS): 2-5 fold
hyperactivation of eNOS (eNOS [4]; Good's buffer systems (e.g., HEPES or MOPS), with Ca+2/CaM): 2-3 fold
eNOS activity relative to eNOS activated by CaM alone (eNOS [4]): 2-3 times
eNOS activity relative to eNOS activated by CaM alone (eNOS [4]; listed as 2′ AMP): 3-5 times
hyperactivation of eNOS (eNOS [4]; most widely used assay systems, Greiss assay): 2-3 fold
Kd (eNOS [4]; titration of eNOS in the presence of 'fully' activating levels of Ca+2/CaM, plate reader Greiss assay, read-out: apparent Kd of additional activation): ~1 mM
Molecule: Nc1ncnc2c1ncn2[C@@H]1O[C@H](CO)[C@@H](O)[C@H]1OP(=O)(O)O [2′AMP]
activation of cNOS in the absence of calmodulin (cNOS; absence of calmodulin, particularly in Tris buffer): activated cNOS in the absence of calmodulin

— patent publication US20050054615A1, “Calmodulin independent activation of nitric oxide synthase” (Rensselaer Polytechnic Institute, priority 2002, published 2005)
